From patent US7977045B2, “Aqueous-based pharmaceutical composition” (Aventis Pharmaceuticals Inc., priority 1996, dated 2011)

Assay: Positron emission tomography of nasal deposition and retention of TAA after spraying the composition
Type: in vivo, human
Protocol: A dose of the composition can be delivered to a human patient by spraying the composition into each of the patient's nasal cavities. For dose delivery, the pre-compression metering pump (Valois VP7/100S) is placed in a patient's nostril and is then actuated by the patient, resulting in a spray into the nasal cavity. After initial priming, each actuation of the pump delivers from the nasal actuator about 100 mg of composition containing about 55 mcg of TAA. Each bottle of composition will provide at least about 120 metered doses. For the exemplified compositions, the recommended once-daily dosing for adults and children 12 years and older begins at about 220 mcgs of TAA, equivalent to two sprays in each nostril.
A composition comprising the formulation of Examples 1 and 2 was administered to two volunteer patients. Post administration, the patients were evaluated by positron emission tomography in order to determine 1) the amount of time it took for the maximum dose of the TAA medicament to be delivered to various regions of interest within the nasal cavity, and 2) the amount of TAA medicament deposited on the regions of interest over a two hour time period. For purposes of the evaluation, the volume of the head region was segmented into 104 distinct regions of interest. […] The results of evaluation indicate a rapid distribution of the TAA medicament to the target regions of the nose.
The evaluation included also a determination of the percentage of the TAA medicament remaining on the target sites two hours after the it was administered to each of the patients. This percentage was determined by dividing the amount remaining in each region of interest by the total amount remaining in the 104 regions of interest.

[1] = first volunteer, at maximum concha contact
[2] = first volunteer, over a two-hour period
[3] = first volunteer, two hours post administration, share of total remaining in 104 regions
[4] = other (second) volunteer, post dose
[5] = second volunteer, two hours post administration

Structure (SMILES): CC1(C)O[C@@H]2C[C@H]3[C@@H]4CCC5=CC(=O)C=C[C@]5(C)[C@@]4(F)[C@@H](O)C[C@]3(C)[C@]2(C(=O)CO)O1 [TAA, triamcinolone acetonide]
- dose directly deposited on the target sites (frontal cavity, frontal sinus, maxillary sinuses, superior and inferior concha) (both volunteers, amount in region divided by total amount remaining in the 104 regions of interest, two hours): greater than 85%
- maximum amount of TAA medicament in contact with the frontal cavity region (first volunteer): about 41%
- maximum amount of the dose deposited into the frontal sinus (first volunteer): approximately 3.5%
- maximum amount of the dose deposited into the maxillary sinuses (first volunteer): ~3.9%
- time to clearance of TAA medicament from the frontal sinus (first volunteer): ≤ 1 h
- amount of total dose in contact with the inferior concha [1]: About 46%
- amount of total dose in contact with the superior concha [1]: about 19%
- amount of total dose remaining in the concha tissues (constant value) (first volunteer, final time period): 3.4-4%
- maximum amount of TAA medicament in contact with the concha regions, % of total dose delivered to the nose (first volunteer, intranasal spray of formulation of Examples 1 and 2, PET): about 65%
- dose deposited in the maxillary sinus region [2]: about 3%
- dose deposited on the frontal sinus [2]: about 1.2%
- time of maximum amount in contact with the concha regions (first volunteer, post dose): about 45 seconds
- time of maximum amount in contact with the frontal cavity region (first volunteer, post dose): about 45 seconds
- time of maximum deposit in the frontal and maxillary sinuses (first volunteer, post dose): ≤ 30 s
- medicament still present in the maxillary sinuses (first volunteer, two hour acquisition sampling time): approximately 1%
- total TAA medicament remaining deposited in the frontal cavity (first volunteer, two hours after administration, share of total remaining in 104 regions): about 47.9%
- amount remaining in the concha region (inferior plus superior) (first volunteer, two hours post administration): about 36.4%
- total medicament deposited in the inferior concha region [3]: about 27.8%
- total medicament deposited in the superior concha region [3]: about 8.6%
- amount in the frontal cavity region (constant level) (first volunteer, two hours post-dose): about 12%
- sum of percentages remaining on the target sites (dose deposited directly onto target tissues) (first volunteer, two-hour serial sampling period): about 88.5%
- maximum amount deposited in the frontal sinus (other (second) volunteer): around 3.5%
- maximum amount deposited in the maxillary sinus (other (second) volunteer): about 2%
- maximum amount of TAA medicament in contact with the frontal cavity, % of total dose delivered to the nose (other (second) volunteer): about 55%
- part of the maximum concha amount associated with the inferior concha (other (second) volunteer): about 75%
- part of the maximum concha amount associated with the superior concha (other (second) volunteer): about 25%
- administered dose still in contact with the concha regions (other (second) volunteer, about two hours post-administration): 6-8%
- dose still resident in the frontal/nasal cavity (other (second) volunteer, after two hours): approximately 22%
- maximum amount of the drug in contact with the concha regions, % of total dose delivered to the nose (other (second) volunteer, intranasal spray of formulation of Examples 1 and 2, PET): about 53%
- time of maximum amount in contact with the frontal cavity [4]: ≤ 30 s
- time of maximum amount in contact with the inferior concha region [4]: about 3.5 minutes
- time of maximum amount in contact with the superior concha region [4]: about 25 seconds
- time of maximum deposit in the maxillary and frontal sinuses [4]: ≤ 30 s
- sum of percentages remaining on the target sites (dose deposited directly onto target tissues) (second volunteer, two hour serial sampling period): about 85.6%
- dose in the frontal sinus [5]: about 1.6%
- dose in the maxillary sinus [5]: about 1.4%
- dose remaining deposited on the inferior concha [5]: About 23.5%
- dose remaining deposited on the superior concha [5]: about 6.9%
- total percentage of the dose remaining deposited on the concha region [5]: about 30.4%
- dose remaining deposited in the frontal cavity (second volunteer, two hours post-drug administration, share of total remaining in 104 regions): about 52.2%
